Data published in patent publication US20080004253A1, “Thiazolopyrimidine modulators of TRPV1” (priority 2006, published 2008).

Columns and labels:
rat TRPV1 = molecular target: T1, rat TRPV1 (Rattus norvegicus, UniProt O35433); experiment: Functional assay: block of capsaicin-induced Ca2+ influx, rat assay (rTRPV1/HEK293, FLIPR); format: cell-based; conditions: rTRPV1/HEK293 cells, capsaicin challenge, Fluo-3 fluorescence; mean; > value = solubility limit in assay medium
T1 construct: expressed in transfected cells; host or cells: HEK293 (rTRPV1/HEK293), geneticin selection
Outline: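 Compounds, as free base or TFA salt, tested from 10 μM in three-fold steps on rTRPV1-transfected HEK293 cells, with 30 min preincubation in low-calcium (20 μM) buffer. Capsaicin-evoked Ca2+ influx measured by FLIPR fluo3 signal before and 100 s after addition. Averaged IC50 from non-linear fits.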

human TRPV1 = molecular target: T2, human TRPV1 (Homo sapiens, UniProt Q8NER1); experiment: Functional assay: block of capsaicin-induced Ca2+ influx, human assay (hTRPV1/HEK293, FLIPR); format: cell-based; conditions: hTRPV1/HEK293 cells, 150 nM capsaicin challenge, Fluo-3 fluorescence; mean; > value = solubility limit in assay medium
T2 construct: expressed in transfected cells; host or cells: HEK293 (hTRPV1/HEK293), zeocin selection
Outline: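 HEK293 cells stably expressing human TRPV1, fluo3-loaded, preincubated 30 min with compound (serial 3-fold dilutions from 10 μM, duplicate) in 20 μM Ca2+ buffer. Capsaicin response taken as fluo3 fluorescence change before vs 100 s after agonist; IC50 by non-linear regression, mean values; free base or TFA salt.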

T1 sequence (O35433 whole entry): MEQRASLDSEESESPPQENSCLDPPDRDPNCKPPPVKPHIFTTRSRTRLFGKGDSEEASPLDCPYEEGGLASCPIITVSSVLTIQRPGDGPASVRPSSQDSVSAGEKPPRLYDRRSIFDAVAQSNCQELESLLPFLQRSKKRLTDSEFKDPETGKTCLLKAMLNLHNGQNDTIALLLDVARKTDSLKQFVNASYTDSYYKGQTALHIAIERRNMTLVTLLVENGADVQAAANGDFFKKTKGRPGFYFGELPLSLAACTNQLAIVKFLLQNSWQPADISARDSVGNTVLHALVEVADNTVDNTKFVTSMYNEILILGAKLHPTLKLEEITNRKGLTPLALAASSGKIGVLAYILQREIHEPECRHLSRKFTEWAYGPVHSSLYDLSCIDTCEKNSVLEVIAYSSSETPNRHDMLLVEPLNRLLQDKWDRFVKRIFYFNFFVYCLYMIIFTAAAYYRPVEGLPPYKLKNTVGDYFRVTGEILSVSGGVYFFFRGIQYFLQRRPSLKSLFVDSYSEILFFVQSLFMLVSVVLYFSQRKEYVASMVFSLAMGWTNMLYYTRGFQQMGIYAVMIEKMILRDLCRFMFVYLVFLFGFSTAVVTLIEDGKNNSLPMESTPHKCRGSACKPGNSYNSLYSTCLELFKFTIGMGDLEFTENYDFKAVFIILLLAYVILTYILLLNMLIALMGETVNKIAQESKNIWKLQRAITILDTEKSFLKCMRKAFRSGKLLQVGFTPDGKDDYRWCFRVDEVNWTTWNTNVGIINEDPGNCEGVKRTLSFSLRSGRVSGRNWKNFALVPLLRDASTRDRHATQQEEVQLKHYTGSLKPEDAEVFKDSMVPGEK
T2 sequence (Q8NER1 whole entry): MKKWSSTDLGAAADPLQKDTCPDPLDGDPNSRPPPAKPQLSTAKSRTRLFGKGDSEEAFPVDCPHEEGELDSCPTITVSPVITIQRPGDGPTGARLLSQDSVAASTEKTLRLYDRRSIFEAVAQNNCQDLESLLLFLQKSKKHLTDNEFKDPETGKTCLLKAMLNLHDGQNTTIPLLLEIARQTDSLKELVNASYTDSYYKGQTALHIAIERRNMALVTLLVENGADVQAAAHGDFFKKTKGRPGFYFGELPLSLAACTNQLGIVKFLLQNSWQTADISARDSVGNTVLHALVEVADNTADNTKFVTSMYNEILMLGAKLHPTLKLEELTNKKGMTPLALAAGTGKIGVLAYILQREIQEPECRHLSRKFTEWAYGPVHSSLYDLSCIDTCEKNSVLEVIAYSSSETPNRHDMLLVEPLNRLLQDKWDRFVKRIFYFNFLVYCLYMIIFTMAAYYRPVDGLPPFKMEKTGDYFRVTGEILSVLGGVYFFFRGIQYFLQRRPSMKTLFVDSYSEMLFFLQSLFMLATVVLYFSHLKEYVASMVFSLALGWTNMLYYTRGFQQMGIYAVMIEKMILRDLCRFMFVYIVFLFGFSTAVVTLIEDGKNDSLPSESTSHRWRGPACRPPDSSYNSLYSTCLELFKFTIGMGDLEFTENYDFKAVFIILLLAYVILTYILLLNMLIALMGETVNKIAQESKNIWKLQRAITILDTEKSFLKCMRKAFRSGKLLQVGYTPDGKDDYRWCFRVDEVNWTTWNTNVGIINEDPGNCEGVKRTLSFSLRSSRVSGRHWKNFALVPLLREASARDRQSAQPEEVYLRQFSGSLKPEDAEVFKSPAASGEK

Compound	IC50 (rat TRPV1)	IC50 (human TRPV1)
Cc1nc(Nc2cccnc2)c2nc(Nc3c(C)cccc3C)sc2n1 [Example 171, N^2-(2,6-Dimethyl-phenyl)-5-methyl-N^7-pyridin-3-yl-thiazolo[5,4-d]pyrimidine-2,7-diamine]	5.32 µM	> 20 µM
Cc1cccc(C)c1Nc1nc2c(Nc3ccc(C(=O)O)cc3)ncnc2s1 [Example 172, 4-[2-(2,6-Dimethyl-phenylamino)-thiazolo[5,4-d]pyrimidin-7-ylamino]-benzoic acid]	> 20 µM	> 20 µM
Cc1nc(Nc2ccc(N(S(C)(=O)=O)S(C)(=O)=O)cc2)c2nc(Nc3c(Cl)cccc3Cl)sc2n1 [Example 173, N-{4-[2-(2,6-Dichloro-phenylamino)-5-methyl-thiazolo[5,4-d]pyrimidin-7-ylamino]-phenyl}-dimethanesulfonamide]	> 6.67 µM	> 6.67 µM
Cc1nc(Nc2ccc(NS(C)(=O)=O)cc2)c2nc(Nc3c(C)cccc3C)sc2n1 [Example 174, N-{4-[2-(2,6-Dimethyl-phenylamino)-5-methyl-thiazolo[5,4-d]pyrimidin-7-ylamino]-phenyl}-methanesulfonamide]	7.38 µM	> 20 µM
Cc1cccc(C)c1Nc1nc2c(Nc3ccc(NS(C)(=O)=O)cc3)ncnc2s1 [Example 175, N-{4-[2-(2,6-Dimethyl-phenylamino)-thiazolo[5,4-d]pyrimidin-7-ylamino]-phenyl}-methanesulfonamide]	> 20 µM	> 20 µM
Cc1cccc(C)c1Nc1nc2c(Nc3ccc(C(F)(F)F)cn3)ncnc2s1 [Example 176, N^2-(2,6-Dimethyl-phenyl)-N^7-(5-trifluoromethyl-pyridin-2-yl)-thiazolo[5,4-d]pyrimidine-2,7-diamine]	> 20 µM	> 20 µM
CS(=O)(=O)c1ccc(Nc2nc(N3CCOCC3)nc3sc(Nc4c(Cl)cccc4Cl)nc23)cc1 [Example 178, N^2-(2,6-Dichloro-phenyl)-N^7-(4-methanesulfonyl-phenyl)-5-morpholin-4-yl-thiazolo[5,4-d]pyrimidine-2,7-diamine]	0.06 µM	0.287 µM
FC(F)(F)c1ccc(Nc2nc(NCCN3CCCCC3)nc3sc(Nc4c(Cl)cccc4Cl)nc23)cc1 [Example 180, N^2-(2,6-Dichloro-phenyl)-N^5-(2-piperidin-1-yl-ethyl)-N^7-(4-trifluoromethyl-phenyl)-thiazolo[5,4-d]pyrimidine-2,5,7-triamine]	0.032 µM	0.123 µM
CNCCNc1nc(Nc2ccc(C(F)(F)F)cc2)c2nc(Nc3c(Cl)cccc3Cl)sc2n1 [Example 181, N^2-(2,6-Dichloro-phenyl)-N^5-(2-methylamino-ethyl)-N^7-(4-trifluoromethyl-phenyl)-thiazolo[5,4-d]pyrimidine-2,5,7-triamine]	> 20 µM	6.44 µM
CN(C)CCN(C)c1nc(Nc2ccc(C(F)(F)F)cc2)c2nc(Nc3c(Cl)cccc3Cl)sc2n1 [Example 182, N^2-(2,6-Dichloro-phenyl)-N^5-(2-dimethhylamino-ethyl)-methyl-N^7-(4-trifluoromethyl-phenyl)-thiazolo[5,4-d]pyrimidine-2,5,7-triamine]	1.82 µM	1.32 µM
CN[C@@H]1CCN(c2nc(Nc3ccc(C(F)(F)F)cc3)c3nc(Nc4c(Cl)cccc4Cl)sc3n2)C1 [Example 183, (3R)-N^2-(2,6-Dichloro-phenyl)-5-(3-methylamino-pyrrolidin-1-yl)-N^7-(4-trifluoromethyl-phenyl)-thiazolo[5,4-d]pyrimidine-2,7-diamine]	> 20 µM	13.6 µM
CS(=O)(=O)c1ccc(Nc2nc(NCC3CC3)nc3sc(Nc4c(Cl)cccc4Cl)nc23)cc1 [Example 184, N^5-Cyclopropylmethyl-N^2-(2,6-dichloro-phenyl)-N^7-(4-methanesulfonyl-phenyl)-thiazolo[5,4-d]pyrimidine-2,5,7-triamine]	0.005 µM	0.008 µM
